From EP2505659A1, “Methods for the identification of dioxygenase interacting molecules and for the purification of dioxygenase proteins” (CELLZOME AG, priority 2011, dated 2012)
Counter-ions that a name gives are not always drawn.

Columns and labels:
EGLN1 [1] = target: T1, EGLN1 (Homo sapiens, UniProt Q9GZT9); assay: Bead competition binding assay, immobilized compound C, HL-60 nuclear extract; conditions: 200 µM free compound C, read-out: Fold change versus DMSO control
T1 construct: endogenous in cells
Protocol: (§1) The preparation of HL-60 nuclear lysates, capturing of dioxygenases from cell lysate and the protein identification by Mass Spectrometry was performed as described in example 2.
(§2) Seven different dioxygenases were identified. […] Table 8: Identified dioxygenases with compound C from HL-60 nuclear extract

PLOD1 = target: T2, PLOD1 (Homo sapiens, UniProt Q02809); assay: as above; conditions: 200 µM free compound C, read-out: Fold change versus DMSO control
T2 construct: capturing and identification of dioxygenases from nuclear protein extracts; endogenous in cells
T2 sequence (Q02809 19-727): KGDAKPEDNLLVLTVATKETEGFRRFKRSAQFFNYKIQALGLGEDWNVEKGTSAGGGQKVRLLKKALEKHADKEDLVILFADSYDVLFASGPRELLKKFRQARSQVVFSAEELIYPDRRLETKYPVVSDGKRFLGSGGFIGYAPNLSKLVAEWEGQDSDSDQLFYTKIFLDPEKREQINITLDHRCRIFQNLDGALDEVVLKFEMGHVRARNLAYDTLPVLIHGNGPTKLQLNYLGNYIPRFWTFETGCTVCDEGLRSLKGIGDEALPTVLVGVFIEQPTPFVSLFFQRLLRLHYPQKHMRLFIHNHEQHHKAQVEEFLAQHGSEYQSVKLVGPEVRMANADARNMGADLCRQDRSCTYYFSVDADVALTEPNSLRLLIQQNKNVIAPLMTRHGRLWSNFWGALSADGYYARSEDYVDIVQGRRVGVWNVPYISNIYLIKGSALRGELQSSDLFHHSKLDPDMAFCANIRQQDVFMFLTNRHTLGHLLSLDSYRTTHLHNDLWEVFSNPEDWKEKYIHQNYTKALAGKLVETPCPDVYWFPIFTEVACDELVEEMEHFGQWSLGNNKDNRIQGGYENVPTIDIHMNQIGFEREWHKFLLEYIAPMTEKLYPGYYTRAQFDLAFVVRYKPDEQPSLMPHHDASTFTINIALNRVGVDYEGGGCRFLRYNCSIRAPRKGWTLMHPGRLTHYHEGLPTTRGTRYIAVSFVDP
Protocol: as §1, §2

LEPREL2 [2] = target: T3, LEPREL2 (Homo sapiens, UniProt Q8IVL6); assay: as above; conditions: 200 µM free compound C, read-out: Fold change versus DMSO control
T3 construct: capturing and identification of dioxygenases from nuclear protein extracts; endogenous in cells
T3 sequence (Q8IVL6 21-736): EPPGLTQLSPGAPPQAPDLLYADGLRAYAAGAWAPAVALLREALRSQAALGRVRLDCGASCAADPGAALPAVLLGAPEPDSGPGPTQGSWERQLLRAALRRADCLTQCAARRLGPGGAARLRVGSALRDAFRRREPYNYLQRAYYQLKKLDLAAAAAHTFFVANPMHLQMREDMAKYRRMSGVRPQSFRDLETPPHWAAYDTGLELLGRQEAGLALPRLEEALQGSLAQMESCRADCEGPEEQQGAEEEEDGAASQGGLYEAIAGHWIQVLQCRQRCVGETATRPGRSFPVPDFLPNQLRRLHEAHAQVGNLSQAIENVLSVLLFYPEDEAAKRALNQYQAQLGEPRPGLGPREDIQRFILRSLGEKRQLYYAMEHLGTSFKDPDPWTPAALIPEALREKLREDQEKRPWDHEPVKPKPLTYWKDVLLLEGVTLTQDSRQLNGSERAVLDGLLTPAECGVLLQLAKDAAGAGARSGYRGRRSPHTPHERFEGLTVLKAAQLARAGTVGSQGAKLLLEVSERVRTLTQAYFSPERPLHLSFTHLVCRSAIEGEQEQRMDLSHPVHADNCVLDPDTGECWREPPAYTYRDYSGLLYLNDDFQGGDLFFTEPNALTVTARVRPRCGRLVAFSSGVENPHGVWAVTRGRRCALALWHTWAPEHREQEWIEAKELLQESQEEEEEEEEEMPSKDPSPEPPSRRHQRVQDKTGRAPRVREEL
Protocol: as §1, §2

C17ORF101 [3] = target: T4, C17ORF101 (Homo sapiens, UniProt Q6PK18); assay: as above; conditions: 200 µM free compound C, read-out: Fold change versus DMSO control
T4 construct: capturing and identification of dioxygenases from nuclear protein extracts; endogenous in cells
T4 sequence (Q6PK18 1-331 isoform Q6PK18-2): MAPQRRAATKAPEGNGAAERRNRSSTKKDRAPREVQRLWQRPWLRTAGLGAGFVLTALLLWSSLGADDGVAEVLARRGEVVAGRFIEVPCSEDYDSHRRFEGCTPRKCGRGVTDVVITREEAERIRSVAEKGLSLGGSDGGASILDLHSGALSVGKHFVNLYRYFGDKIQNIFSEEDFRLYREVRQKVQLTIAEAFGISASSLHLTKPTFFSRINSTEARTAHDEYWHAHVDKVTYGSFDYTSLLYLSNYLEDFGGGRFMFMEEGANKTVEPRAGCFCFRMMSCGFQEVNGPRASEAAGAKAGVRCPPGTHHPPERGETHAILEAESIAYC
Protocol: as §1, §2

ALKBH3 [4] = target: T5, ALKBH3 (Homo sapiens, UniProt Q96Q83); assay: as above; conditions: 200 µM free compound C, read-out: Fold change versus DMSO control
T5 construct: capturing and identification of dioxygenases from nuclear protein extracts; endogenous in cells
T5 sequence (Q96Q83 1-286): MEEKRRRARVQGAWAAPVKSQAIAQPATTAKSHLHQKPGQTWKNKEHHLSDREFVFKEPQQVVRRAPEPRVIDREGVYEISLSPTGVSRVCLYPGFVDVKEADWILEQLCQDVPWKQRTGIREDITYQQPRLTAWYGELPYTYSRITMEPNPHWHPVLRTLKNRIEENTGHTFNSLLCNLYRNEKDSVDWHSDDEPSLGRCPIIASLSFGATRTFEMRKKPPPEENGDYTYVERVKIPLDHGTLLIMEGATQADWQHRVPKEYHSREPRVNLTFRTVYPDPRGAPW
Protocol: as §1, §2

LEPRE1 [5] = target: T6, LEPRE1 (Homo sapiens, UniProt Q32P28); assay: as above; conditions: 200 µM free compound C, read-out: Fold change versus DMSO control
T6 construct: capturing and identification of dioxygenases from nuclear protein extracts; endogenous in cells
T6 sequence (Q32P28 23-736): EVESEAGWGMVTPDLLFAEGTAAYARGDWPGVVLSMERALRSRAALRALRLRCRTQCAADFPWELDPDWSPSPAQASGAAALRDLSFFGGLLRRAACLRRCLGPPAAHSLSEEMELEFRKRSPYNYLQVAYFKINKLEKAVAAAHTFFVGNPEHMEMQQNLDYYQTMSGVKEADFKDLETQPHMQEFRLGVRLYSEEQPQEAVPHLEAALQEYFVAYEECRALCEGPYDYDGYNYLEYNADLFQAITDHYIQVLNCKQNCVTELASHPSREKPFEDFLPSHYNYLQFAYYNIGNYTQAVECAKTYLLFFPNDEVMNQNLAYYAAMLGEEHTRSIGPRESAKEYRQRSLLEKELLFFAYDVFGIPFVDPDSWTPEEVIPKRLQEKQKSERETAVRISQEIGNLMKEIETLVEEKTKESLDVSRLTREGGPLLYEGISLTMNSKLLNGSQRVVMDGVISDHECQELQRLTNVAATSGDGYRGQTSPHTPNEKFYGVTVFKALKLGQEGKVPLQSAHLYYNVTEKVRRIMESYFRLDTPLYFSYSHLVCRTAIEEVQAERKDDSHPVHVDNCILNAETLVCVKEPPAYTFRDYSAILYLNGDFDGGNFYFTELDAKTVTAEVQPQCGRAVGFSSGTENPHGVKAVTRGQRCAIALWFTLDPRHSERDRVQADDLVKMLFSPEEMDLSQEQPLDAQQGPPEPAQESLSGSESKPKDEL
Protocol: as §1, §2

P4HA1 [6] = target: T7, P4HA1 (Homo sapiens, UniProt P13674); assay: as above; conditions: 200 µM free compound C, read-out: Fold change versus DMSO control
T7 construct: endogenous in cells
Protocol: as §1, §2

EGLN1 [7] = target: T1, EGLN1; assay: Bead competition binding assay, immobilized compound B, HL-60 nuclear extract; conditions: 200 µM free compound B, read-out: Fold change versus DMSO control
Protocol: as §1
(§3) Seven different dioxygenases were identified. […] Table 7: Identified dioxygenases with compound B from HL-60 nuclear extract

LEPREL2 [8] = target: T3, LEPREL2; assay: as above; conditions: 200 µM free compound B, read-out: Fold change versus DMSO control
Protocol: as §1, §3

OGFOD2 = target: T8, OGFOD2 (Homo sapiens, UniProt Q6N063); assay: as above; conditions: 200 µM free compound B, read-out: Fold change versus DMSO control
T8 construct: endogenous in cells; host or cells: HL-60 nuclear extract
T8 sequence (Q6N063 1-350): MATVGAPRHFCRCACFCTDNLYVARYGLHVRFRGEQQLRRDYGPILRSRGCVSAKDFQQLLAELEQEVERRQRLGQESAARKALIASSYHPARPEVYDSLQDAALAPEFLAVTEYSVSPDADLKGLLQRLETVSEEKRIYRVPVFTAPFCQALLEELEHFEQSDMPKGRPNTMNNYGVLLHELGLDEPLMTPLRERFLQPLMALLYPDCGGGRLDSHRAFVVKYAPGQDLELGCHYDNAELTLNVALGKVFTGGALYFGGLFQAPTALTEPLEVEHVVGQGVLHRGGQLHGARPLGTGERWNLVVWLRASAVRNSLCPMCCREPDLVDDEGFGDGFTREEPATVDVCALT
Protocol: as §1, §3

C17ORF101 [9] = target: T4, C17ORF101; assay: as above; conditions: 200 µM free compound B, read-out: Fold change versus DMSO control
Protocol: as §1, §3

ALKBH3 [10] = target: T5, ALKBH3; assay: as above; conditions: 200 µM free compound B, read-out: Fold change versus DMSO control
Protocol: as §1, §3

LEPRE1 [11] = target: T6, LEPRE1; assay: as above; conditions: 200 µM free compound B, read-out: Fold change versus DMSO control
Protocol: as §1, §3

P4HA1 [12] = target: T7, P4HA1; assay: as above; conditions: 200 µM free compound B, read-out: Fold change versus DMSO control
Protocol: as §1, §3

T7 sequence (P13674 18-534): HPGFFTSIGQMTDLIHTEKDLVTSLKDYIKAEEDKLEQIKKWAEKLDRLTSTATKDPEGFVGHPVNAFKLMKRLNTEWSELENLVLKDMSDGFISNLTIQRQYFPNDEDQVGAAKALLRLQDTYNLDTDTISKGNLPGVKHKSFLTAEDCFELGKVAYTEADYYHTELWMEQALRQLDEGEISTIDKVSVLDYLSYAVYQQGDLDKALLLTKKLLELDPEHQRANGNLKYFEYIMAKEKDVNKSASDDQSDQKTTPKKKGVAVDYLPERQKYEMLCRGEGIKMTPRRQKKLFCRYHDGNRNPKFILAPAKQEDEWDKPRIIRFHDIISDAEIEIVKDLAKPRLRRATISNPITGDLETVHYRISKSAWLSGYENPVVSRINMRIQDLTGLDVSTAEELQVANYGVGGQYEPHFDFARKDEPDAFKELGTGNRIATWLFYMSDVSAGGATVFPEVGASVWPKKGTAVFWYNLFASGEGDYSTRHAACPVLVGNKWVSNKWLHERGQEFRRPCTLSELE
T7 sequence (P07237 18-508 partner): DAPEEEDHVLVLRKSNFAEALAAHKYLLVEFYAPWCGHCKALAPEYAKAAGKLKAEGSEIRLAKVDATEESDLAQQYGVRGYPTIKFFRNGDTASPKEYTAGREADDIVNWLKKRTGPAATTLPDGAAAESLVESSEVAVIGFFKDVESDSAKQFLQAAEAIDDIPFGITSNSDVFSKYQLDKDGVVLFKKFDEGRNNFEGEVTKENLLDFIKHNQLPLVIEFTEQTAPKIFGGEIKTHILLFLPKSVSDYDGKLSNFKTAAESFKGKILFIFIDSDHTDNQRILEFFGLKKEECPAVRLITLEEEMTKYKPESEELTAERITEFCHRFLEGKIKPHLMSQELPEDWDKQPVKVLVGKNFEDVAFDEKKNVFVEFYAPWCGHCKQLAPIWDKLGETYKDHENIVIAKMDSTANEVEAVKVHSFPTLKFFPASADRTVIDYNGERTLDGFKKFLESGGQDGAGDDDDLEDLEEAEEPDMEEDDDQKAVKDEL
T1 sequence (Q9GZT9 whole entry): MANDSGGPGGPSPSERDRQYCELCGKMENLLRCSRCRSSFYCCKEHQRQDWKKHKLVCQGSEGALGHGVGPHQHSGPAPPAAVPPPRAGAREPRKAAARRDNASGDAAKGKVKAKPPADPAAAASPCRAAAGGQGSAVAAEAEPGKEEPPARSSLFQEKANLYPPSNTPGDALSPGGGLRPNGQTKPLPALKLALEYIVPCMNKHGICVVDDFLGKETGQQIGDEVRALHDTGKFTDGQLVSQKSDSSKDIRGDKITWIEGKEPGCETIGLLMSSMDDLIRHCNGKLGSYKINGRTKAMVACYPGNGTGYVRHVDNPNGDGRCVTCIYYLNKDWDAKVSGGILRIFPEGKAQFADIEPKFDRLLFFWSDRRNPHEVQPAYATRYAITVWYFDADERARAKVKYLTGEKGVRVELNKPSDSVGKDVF

| SMILES | remaining binding at 200 µM (EGLN1 [1]) [%] | remaining binding at 200 µM (PLOD1) [%] | remaining binding at 200 µM (LEPREL2 [2]) [%] | remaining binding at 200 µM (C17ORF101 [3]) [%] | remaining binding at 200 µM (ALKBH3 [4]) [%] | remaining binding at 200 µM (LEPRE1 [5]) [%] | remaining binding at 200 µM (P4HA1 [6]) [%] | remaining binding at 200 µM (EGLN1 [7]) [%] | remaining binding at 200 µM (LEPREL2 [8]) [%] | remaining binding at 200 µM (OGFOD2) [%] | remaining binding at 200 µM (C17ORF101 [9]) [%] | remaining binding at 200 µM (ALKBH3 [10]) [%] | remaining binding at 200 µM (LEPRE1 [11]) [%] | remaining binding at 200 µM (P4HA1 [12]) [%] |
| --- | --- | --- | --- | --- | --- | --- | --- | --- | --- | --- | --- | --- | --- | --- |
| O=C(O)CNC(=O)C1C(=O)OC(C2CCNCC2)OC1=O (centres unmarked) [compound C, 2-(4,6-dioxo-2-(piperidin-4-yl)-1,3-dioxane-5-carboxamido)acetic acid hydrochloride] | 19 | 51 | 12 | 24 | 45 | 48 | 10 |  |  |  |  |  |  |  |
| O=C(O)CNC(=O)C1C(=O)OC2(CCCNC2)OC1=O (centres unmarked) [compound B, 2-(2,4-dioxo-1,5-dioxa-8-azaspiro[5.5]undecane-3-carboxamido)acetic acid hydrochloride] |  |  |  |  |  |  |  | 52 | 13 | 18 | 52 | 56 | 67 | 24 |
